{"source": "patent US20040147595A1", "about": "“Biofilm degrading or sloughing compositions and methods” (priority 2001, published 2004)", "key": {"[1]": {"test_system": "OHHL induced LuxR dependent expression of GFP", "experiment": "Quantitative furanone inhibition of the LuxR-PluxI-gfp(ASV) quorum sensor in E. coli MT102 (pJBA89)", "format": "cell-based, Escherichia coli", "conditions": "gradient of furanone concentration lowering RFU to 40% versus OHHL concentration (5-100 nM)", "from_the_text": "To analyse the AHL antagonist activity of the halogenated furanones we tested the compounds for their ability to inhibit 3oxo-C6-HSL (OHHL) induced LuxR dependent expression of green fluorescent protein (GFP) from a Pgfp(ASV) fusion in the AHL monitor strain E. coli MT102 harbouring pJBA89 (Andersen et al., 2001).\nThe medium used is minimal ABT containing 0.5% glucose and 0.5% Casamino Acids. In growing cultures of the AHL monitor strain E. coli Mt102 (pJBA89) encoding […] and a P-gfp(ASV) fusion, GFP(ASV) is produced immediately upon OHHL addition specifically from the LuxR controlled P-gfp(ASV) fusion gene. The sensitivity is high (responsive to as little as 3 nm OHHL) and due to the instability built into the GFP (ASV) variant there is no background production of green fluoroscence (Andersen et al., 2001). GFP expression from the AHL monitor strain E. coli MT102 (pJBA89) and the control strain MT102 harbouring the lacl^q, Plas-gfp(ASV) IPTG inducible expression system pMH197 was quantified in the following way. Overnight cultures were diluted four fold in fresh medium and incubated for one hour at 30° C. while OHHL and furanone compounds in the required concentrations were mixed in the wells of microtiter dishes. […] When absolute values were required, green fluoroscence was measured on a fluorometer (model RF-1501; Shimadzu, Tokyo, Japan) act at an excitation wavelength of 475 nm and emission detection at 515 nm. To establish a correlation between the colour code of the ARGUS-50 captured images and green fluorescence, both colour and relative fluorescence units (RFU), were determined for a dilution series of an E. coli MT102 (pJBA89) culture which had been incubated with […]. […]\nFrom the second plot, the furanone concentration reducing the relative activity to 40% (ID60) is determined for each OHHL concentration. […]\nTo enable easy comparison of the strength of the furanones, an inhibition index (IIX40) is calculated for each furanone compound. […]"}, "bacterial growth": {"test_system": "bacterial growth", "experiment": "Bacterial growth inhibition at the concentrations tested in the quorum sensor assay", "format": "cell-based", "from_the_text": "The natural compound 2 has an IIX40 0.75 where as compound 30 and […] have IIX40 of 0.01 and 0.51 respectively."}, "[2]": {"test_system": "V. fisheri lux quorum sensing system (LuxR)", "experiment": "V. fisheri luxR PluxI-gfp(ASV) reporter in PAO-JP2 biofilm", "format": "cell-based, Pseudomonas aeruginosa", "conditions": "250 nM OHHL", "procedure": "P. aeruginosa biofilms. Biofilms were grown at 30° C. in three-dimensional flow cells (Christensen et al., 1999) with individual channel dimensions of 0.3×4×40 mm supplied With ABt minimal medium supplemented with 2% LB. The flow system was assembled and prepared as described by Christensen et al. (1999). The substratum consisted of a microscope glass coverslip (Knittel 24×50 mm st1, Knittel Glaser, Braunschweig, Germany). Cultures for inoculation of the flow channels were prepared in the following way: P. aeruginosa strains were streaked on LB plates with the appropriate antibiotics and incubated for 24 h at 37° C. From each plate a single colony was used for inoculation of 10 ml ABt with 10% LB. The cultures were grown at, 30° C. for 18 h before they were diluted to an OD600 nm of 0.1 in sterile 0.9% NaCl and used for inoculation of the flow channels. Medium flow was kept at a constant rate of 3 mL/h, equivalent to a mean flow velocity of 0.7 mm/s, using a Watson-Marlow 205S peristaltic pump (Watson-Marlow, Falmouth, England). Biofilms were grown for 24 hours before being shifted to media containing AHL and furanone.\nScanning confocal laser microscopy (SCLM). Microscopic inspection and image acquisition were performed an a scanning confocal laser microscope (model TCS4D, Leica Lasertechnik GmbH, Heldelberg, Germany) equipped with a 63×/1.32-0.6 oil objective. The microscope was equipped with a motorized and programmable xy-stage, which was used for monitoring single colonies during the biofilm experiments. At the beginning of each online experiment, the microscope was programmed to track single randomly selected microcolonies; the sensitivity of photo multipliers and the laser intensity were adjusted and thereafter kept constant through out the duration of the experiments. Image scanning was carried out using the 488 nm and 568 nm lines of an Ar/Kr laser for detection of Gfp and Rfp, respectively. Visualization of captured images was performed using the IMARIS software package (Bitplane AG, Zúrich, Switzerland) running on a Silicon Graphics Indigo 2 workstation (Silicon Graphics, Mountain View, Calif. USA).\nRepression of LuxR-activated quorum sensing controlled gene transcription. We speculated that the AHL-antagonstic properties of furanone 56 was specific to the P. aeruginosa las quorum sensing system. To test this, a previously published quorum sensing reporter based on the Vibro fisherf luxR gene and Pluxl-gfp(ASV) (Anderson at al, 2001; Wu et al, 2000) was transferred to PAO-JP2."}, "[3]": {"test_system": "OHHL induced LuxR dependent expression of GFP", "conditions": "E. coli MT102 (pJBA89); cited from earlier work"}}}
{"smiles": "O=C1C=C(Br)/C(=C/Br)O1", "note": "[Compound 30]", "values": [{"measurement": "inhibition index (IIX40)", "setting": "[1]", "result": "0.01 mole of furanone per mmole of"}, {"measurement": "concentration slightly above which growth was inhibited", "setting": "bacterial growth", "result": "above 10 nm"}]}
{"smiles": "CCCC(=O)CC(=O)N[C@H]1CCOC1=O", "note": "[OHHL, N-[3-oxo-hexanoyl]-L-homoserine lactone, reference compound]", "values": [{"measurement": "green fluorescence of biofilm", "setting": "[2]", "result": "developed within one hour"}, {"measurement": "lowest OHHL concentration the monitor strain responds to", "setting": "[3]", "result": 3, "unit": "nm"}]}
